Where two headings read alike, the source gives them in different places.
How the values were obtained:
[1] = system: luciferase-expressing Saccharomyces cerevisiae; type: cell-based; settings: S. cerevisiae, 8 hours culturing after addition
Experimental: Transformation was performed using Saccharomyces cerevisiae distributed by Biotechnology Center, National Institute of Technology and Evaluation, whereby luciferase-expressing microorganisms were produced. A vector pYES2 (Thermo Fisher Scientific) was digested with HindIII and XbaI, and a synthetic (synthesized by Thermo Fisher Scientific on commission) a factor-luciferase gene having a HindIII cut site at one end and an XbaI cut site at the other end was inserted into the vector. The microorganisms were transformed by the a factor-luciferase gene-inserted pYES2 according to the method described in an instruction manual of pYES2. The luciferase-expressing microorganisms were inoculated using a platinum loop into YPD broth (yeast extract 1 wt % (Difco), bacto peptone 2 wt % (Difco), and glucose 2 wt %) and were shake-cultured at 200 rpm at 30° C. for 15 hours. Then, the thus-obtained broth was resuspended in 125-ml YPD broth (containing 100 mM potassium hydrogen phosphate buffer; pH: 6) to a final optical density (hereinafter sometimes abbreviated as “OD”) of 0.1 OD/ml.
The optical density of the broth was measured under the same conditions as for “Method of measuring the optical density of broth” described later.
Further, the resuspended broth was continued to be shake-cultured at 1100 rpm at 30° C. for about 17 hours until OD was 20 to 30. When OD was 20 to 30, the broth was centrifuged (1500 g, 10 min), and resuspended in 125-ml galactose-inducing broth (the YPD broth containing 100 mM potassium phosphate buffer and also containing 2% galactose instead of glucose; pH: 6), followed by culturing at 1100 rpm at 30° C. for 2 hours.
Subsequently, the surfactant described in Table 1 was added to the broth in the amount (wt %) described in Table 1, and the broth was cultured at 1100 rpm at 30° C. for 8 hours. Subsequently, the broth was sampled for measuring the optical density (optical density at the end of culturing) and for measuring the secretion efficiency. Then, these samples were subjected to centrifugation using a centrifuge to separate bacteria and the supernatant from the broth. Then, the supernatant and the bacteria were collected.
The optical density of the broth containing the microorganisms collected by sampling was measured in a quartz cell (light path of 1 cm) using a spectrophotometer (UV-1700, Shimadzu Corporation).
The broth was centrifuged at 1500 rpm at 4° C. for 5 minutes, and the supernatant was discarded. The precipitate was resuspended in a saline solution in an amount equal to the amount of the sample solution, and was diluted in the saline solution to obtain an appropriate absorbance (0.1 to 0.8). Then, the absorbance at 600 nm was measured. The optical density of the broth was calculated using the following mathematical formula (1).
Broth optical density(OD)=(Absorbance of diluted broth at 600 nm)×dilution factor of broth (Mathematical formula 1)

[2] = system: acid phosphatase-expressing Candida boidinii; type: cell-based; settings: 8 hours
Experimental: Candida boidinii was transformed and acid phosphatase-expressing microorganisms were produced based on a method described in a known document (Regulation and evaluation of five methanol-inducible promoters in the methylotrophic yeast Candida boidinii, H. Yurimoto et al., Biochimica et Biophysica Acta, 1493, 2000, pp. 56-63). The acid phosphatase-expressing microorganisms were inoculated using a platinum loop into BMGY broth, and were shake-cultured at 200 rpm at 30° C. for 15 hours. Then, the thus-obtained broth was resuspended in 125-ml BMGY broth to a final OD of 0.1 OD/ml. Further, the resuspended broth was continued to be shake-cultured at 1100 rpm at 30° C. for about 17 hours until OD was 2 to 5. When OD was 2 to 5, methanol was added to a concentration of 2 v/v %, followed by culturing at 1100 rpm at 30° C. for 2 hours.
Two hours later, the surfactant described in Table 3 was added to the broth in the weight described in Table 3, and the broth was cultured at 1100 rpm at 30° C. for 8 hours. Eight hours later, the broth was sampled for measuring the optical density (optical density at the end of culturing), and was subjected to centrifugation using a centrifuge to separate bacteria and the supernatant from the broth. Then, the supernatant and the bacteria were collected.
Then, 50 mM acetic acid NaBf (pH 4.0) was added to the bacteria, followed by centrifugation, whereby the bacteria were washed. The washed bacteria were resuspended in 50 mM acetic acid NaBf (pH 4.0), whereby a sample for measuring the acid phosphatase activity on the bacterial surface was obtained.
The supernatant obtained in each of Examples 23 to 33 and Comparative Example 3 was mixed with a 2 M sodium acetate buffer (pH 4.0) in an amount of 5 μl that is 1/40 of the amount of the supernatant. The buffer-containing supernatant or the sample for measuring the bacterial surface obtained in each of Examples 23 to 33 was mixed with a substrate solution (50 mM sodium acetate buffer containing 0.64 mg/ml of p-nitrophenylphosphate; pH 4.0) at a capacity ratio of 1:1, and the mixture was reacted at 35° C. for 10 minutes.
After the reaction, a 10% solution of trichloroacetic acid in an amount equal to the amount of the reaction solution was added to the reaction solution to terminate the reaction. To develop a color, a saturated sodium carbonate solution in an amount equal to the total amount of the reaction solution was added to the solution in which the reaction has been terminated. The color-developed solution was centrifuged at 1500×g for 5 minutes to remove the insoluble fraction, and the absorbance at 420 nm was measured using a microplate reader “PowerWave” (Biotek). The reference wavelength was set to 630 nm.
The acid phosphatase activity of each of the supernatant and the sample for measuring the bacterial surface was calculated from the following formula. The thus-obtained acid phosphatase activity of the supernatant was regarded as the “acid phosphatase activity of secreted and produced useful substance” and the acid phosphatase activity of the sample for measuring the bacterial surface was regarded as the “acid phosphatase activity of useful substance remaining on bacterial surface”.
Acid phosphatase activity=((Abs 420 nm)−(Abs 630 nm))/(optical density at the end of culturing)
For each of Examples 23 to 33 and Comparative Example 3, the obtained value of the “acid phosphatase activity of secreted and produced useful substance” and the obtained value of the “acid phosphatase activity of useful substance remaining on bacterial surface” were used to calculate the secretion efficiency from the following mathematical formula.
Secretion efficiency (%)=100×(Acid phosphatase activity of secreted and produced useful substance)/(total acid phosphatase activity) […]

[3] = surfactant 0.03 wt % of broth, Examples 2, 5-11
[4] = surfactant 0.03 wt % of broth, Examples 24, 27-33

| Compound | Optical density (OD) of broth at the end of culturing [1, 3] [OD] | Secretion efficiency (%) [2, 4] [%] | also measured |
| --- | --- | --- | --- |
| CCCCCCCCCCCCNCCC(=O)O | 21.2 | 63 | Optical density (OD) of broth at the end of culturing ([1]; surfactant 0.003 wt % of broth, Example 1): 23.5 OD; Optical density (OD) of broth at the end of culturing ([1]; surfactant 0.3 wt % of broth, Example 3): 18.2 OD; Optical density (OD) of broth at the end of culturing ([1]; surfactant 3 wt % of broth, Example 4): 10.9 OD; Secretion efficiency (%) ([2]; surfactant 0.003 wt % of broth, Example 23): 49%; Secretion efficiency (%) ([2]; surfactant 0.3 wt % of broth, Example 25): 77%; Secretion efficiency (%) ([2]; surfactant 3 wt % of broth, Example 26): 79% |
| CCCCCCCCCCCC[N+](C)(C)CCCS(=O)(=O)O.[OH-] [Surfactant (A3-3), dodecyldimethyl(3-sulfopropyl)ammonium hydroxide] | 21.8 | 54 | – |
| sodium polyoxyethylene (average 2.5 mol adduct) lauryl ether sulfate [Surfactant (A1-1)] | 21.9 | 49 | – |
| CCCCCCCCCCCC[N+](C)(C)C.[Cl-] [Surfactant (A2-1), lauryl trimethyl ammonium chloride] | 13.8 | 61 | – |
| sodium (2-dodecylamino)ethanesulfonate [Surfactant (A3-1)] | 22.0 | 57 | – |
| sodium polyoxyethylene (average 3 mol adduct) lauryl ether acetate [Surfactant (A1-2)] | 22.1 | 48 | – |
| CCCCCCCCCCCC[N+](C)(C)CC(=O)[O-] [Surfactant (A3-5), betaine lauryldimethylaminoacetate] | 20.4 | 61 | – |
| CCCCCCCCCCCCCCCCOP(=O)([O-])OCC[N+](C)(C)C [Surfactant (A3-4), miltefosine, reference compound] | 21.1 | 54 | – |

Reference: patent US20200032313A1 (SANYO CHEMICAL INDUSTRIES, LTD., priority 2017, published 2020)
